Ends that are not written are not given here.
Columns and labels:
S. aureus V8 proteinase = target: T1, S. aureus V8 proteinase (Staphylococcus aureus, UniProt P0C1U8); test: Protease sensitivity assay (SDS-PAGE); format: in vitro ADME; details: 1 µg peptide, 0.1 µg enzyme, 30 µl, 37°C, 3 hours (legend: 4 h), SDS-PAGE Coomassie; in words
T1 construct: purchased BioCol GmbH (Potsdam, Germany)
Description: (§1) For evaluation of sensitivity to bacterial and endogenous proteases, peptides (1 µg) were incubated at 37°C with S. aureus aureolysin (0.1 µg, 25000 units/mg), S. aureus V8 proteinase (0.1 µg, 2000 mU), both from BioCol GmbH (Potsdam, Germany), human neutrophil elastase (0.4 µg, 29 units/mg; Calbiochem (La Jolla, USA)) or P. aeruginosa elastase (0.1 µg, 261 units/mg) (Calbiochem, La Jolla, USA) in a total volume of 30 µl for 3 hours. The materials were analyzed on 16.5% precast sodium dodecyl sulfate polyacrylamide (SDS-PAGE) Tris-Tricine gels (BioRad, Hercules, USA) and analyzed after staining with Coomassie Blue R-250 (Merck, Darmstadt, Germany).

S. aureus aureolysin = target: T2, S. aureus aureolysin (Staphylococcus aureus, UniProt P81177); test: Protease sensitivity assay (SDS-PAGE); format: in vitro ADME; details: 1 µg peptide, 0.1 µg enzyme, 30 µl, 37°C, 3 hours (legend: 4 h), SDS-PAGE Coomassie; in words
T2 construct: purchased BioCol GmbH (Potsdam, Germany)
T2 sequence (P81177 209-509): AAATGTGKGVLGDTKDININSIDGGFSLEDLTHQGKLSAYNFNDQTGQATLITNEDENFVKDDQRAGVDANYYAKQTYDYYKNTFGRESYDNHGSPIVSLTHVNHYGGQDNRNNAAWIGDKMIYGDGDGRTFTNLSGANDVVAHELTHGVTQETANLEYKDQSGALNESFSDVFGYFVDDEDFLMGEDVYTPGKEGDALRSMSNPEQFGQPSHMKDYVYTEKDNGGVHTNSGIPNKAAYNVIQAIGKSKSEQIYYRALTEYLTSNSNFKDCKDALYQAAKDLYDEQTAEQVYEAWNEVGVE
Description: as §1

P. aeruginosa elastase = target: T3, P. aeruginosa elastase (Pseudomonas aeruginosa, UniProt P14756); format: in vitro ADME; details: 37°C, in words; for stability against P. aeruginosa elastase: 1 µg peptide, 0.1 µg enzyme, 30 µl, 3 hours (legend: 4 h), SDS-PAGE Coomassie; for stability against P. aeruginosa elastase, extended digestion: different times up to 18 h, SDS-PAGE
T3 construct: purchased Calbiochem (La Jolla, USA)
T3 sequence (P14756 198-498): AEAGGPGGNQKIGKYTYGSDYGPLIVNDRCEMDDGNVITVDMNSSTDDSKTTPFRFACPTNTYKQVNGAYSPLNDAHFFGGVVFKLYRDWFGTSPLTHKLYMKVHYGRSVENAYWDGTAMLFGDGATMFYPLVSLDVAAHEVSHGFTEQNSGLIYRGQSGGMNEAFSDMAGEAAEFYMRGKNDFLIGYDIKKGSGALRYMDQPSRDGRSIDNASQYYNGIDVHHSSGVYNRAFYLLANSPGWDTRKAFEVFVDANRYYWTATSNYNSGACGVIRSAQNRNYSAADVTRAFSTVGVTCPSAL
Description: […] The materials were analyzed on 16.5% precast sodium dodecyl sulfate polyacrylamide (SDS-PAGE) Tris-Tricine gels (BioRad, Hercules, USA) and analyzed after staining with Coomassie Blue R-250 (Merck, Darmstadt, Germany).

[1] = target: T4, human neutrophil elastase (Homo sapiens, UniProt P08246); test: Protease sensitivity assay (SDS-PAGE); format: in vitro ADME; details: 1 µg peptide, 0.4 µg enzyme, 30 µl, 37°C, 3 hours (legend: 4 h), SDS-PAGE Coomassie; in words
T4 construct: purchased Calbiochem (La Jolla, USA)
T4 sequence (P08246 30-267): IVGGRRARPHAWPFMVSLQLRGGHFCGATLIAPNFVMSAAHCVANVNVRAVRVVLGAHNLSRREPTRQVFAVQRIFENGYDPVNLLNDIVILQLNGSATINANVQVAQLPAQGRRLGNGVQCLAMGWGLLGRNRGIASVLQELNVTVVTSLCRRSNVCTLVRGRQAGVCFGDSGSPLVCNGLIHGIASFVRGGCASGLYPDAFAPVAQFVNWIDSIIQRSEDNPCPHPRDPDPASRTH
Description: as §1

[2] = system: human erythrocytes in 50% citrate blood with S. aureus or P. aeruginosa; details: peptide 120 µM (highest dose), 1 hour 37°C, in words
Description: For analysis of peptide-induced permeabilization of human erythroytes, EDTA-, or citrate-blood was drawn from healthy volunteers, [51], centrifuged at 800 g for 10 min, and plasma and buffy coat were removed. For experiments using EDTA-blood, [51] erythrocytes were washed three times and resuspended to 5% in PBS, pH 7.4. For experiments in 50% blood, citrate-blood was diluted (1∶1) with PBS. The cells were then incubated with end-over-end rotation for 1 h at 37°C in the presence of peptides (60 µM). 2% Triton X-100 (Sigma-Aldrich, St. Louis, USA) served as positive control. The samples were then centrifuged at 800 g for 10 min. The absorbance of hemoglobin release was measured at 540 nm and is expressed as % of TritonX-100 induced hemolysis. In the experiments with blood infected by bacteria, citrate-blood was diluted (1∶1) with PBS. The cells were then incubated with end-over-end rotation for 1 h at 37°C in the presence of peptides (60 and 120 µM) and S. aureus (2×10^8 cfu/ml) or P. aeruginosa (2×10^8 cfu/ml) bacteria. For evaluation of hemolysis, samples were then processed as above. Results given represent mean values from triplicate measurements.

[3] = system: Pseudomonas aeruginosa – Liverpool genotype LES 431; format: cell-based
Description: (§2) In order to determine the minimal inhibitory concentration (MIC) for a given peptide and bacteria, we used a standardized dilution method according to NCSLA guidelines. In brief, fresh overnight colonies were suspended to a turbidity of 0.5 units and further diluted in Mueller-Hinton broth (MH) (Becton Dickinson). For determination of MIC, peptides were dissolved in water at concentration 10 times higher than the required range by serial dilutions from a stock solution. Ten µl of each concentration was added to each corresponding well of a 96-well microtiter plate (polypropylene, Costar Corp.) and 90 µl of bacteria (1×10^5) in MH medium added. The plate was incubated at 37°C for 16–18 h. MIC was considered as the lowest concentration of peptide where no visual growth of bacteria was detected. Additional MIC determinations presented in Table 2 were performed using cation-adjusted MH broth at Quotient Bioresearch Ltd., Fordham, United Kingdom.

[4] = system: Pseudomonas aeruginosa ATCC 27853 - antibiotic-susceptible type strain; format: cell-based
Description: as §2

[5] = system: Staphylococcus epidermidis– methicillin-resistant clinical isolate; format: cell-based
Description: as §2

[6] = system: EMRSA16 Staphylococcus aureus (MRSA) – SSCmec type 2; format: cell-based; details: EMRSA16 – SSCmec type 2
Description: as §2

[7] = system: Staphylococcus aureus - teicoplanin-intermediate clinical isolate; format: cell-based
Description: as §2

[8] = system: Streptococcus pyogenes – Macrolide (M-type) resistance clinical isolate; format: cell-based
Description: as §2

[9] = system: Escherichia coli ATCC 35218 - β-lactamase positive type strain; format: cell-based
Description: as §2

[10] = system: Group C Streptococcus – antibiotic-susceptible clinical isolate; format: cell-based
Description: as §2

[11] = system: Group G Streptococcus – macrolide-resistant clinical isolate; format: cell-based
Description: as §2

[12] = system: Escherichia coli ATCC 25922 - antibiotic-susceptible type strain; format: cell-based
Description: as §2

[13] = system: HT2001254 Staphylococcus aureus (MRSA) – PVL positive; format: cell-based
Description: as §2

[14] = system: Staphylococcus aureus ATCC 43300 – methicillin-resistant type strain; format: cell-based
Description: as §2

[15] = system: Staphylococcus aureus ATCC 29213 – antibiotic-susceptible type strain; format: cell-based
Description: as §2

[16] = system: Group G Streptococcus – antibiotic-susceptible clinical isolate; format: cell-based
Description: as §2

[17] = system: Group C Streptococcus – macrolide-resistant clinical isolate; format: cell-based
Description: as §2

[18] = system: Staphylococcus haemolyticus – antibiotic susceptible clinical isolate; format: cell-based
Description: as §2

[19] = system: EMRSA15 Staphylococcus aureus (MRSA) – SSCmec type 4; format: cell-based; details: EMRSA15 – SSCmec type 4
Description: as §2

[20] = system: Escherichia coli - ESBL - TEM; format: cell-based
Description: as §2

[21] = system: Streptococcus pyogenes – antibiotic-susceptible clinical isolate; format: cell-based
Description: as §2

[22] = system: EMRSA3 Staphylococcus aureus (MRSA) – SSCmec type 1; format: cell-based; details: EMRSA3 – SSCmec type 1
Description: as §2

[23] = system: Staphylococcus saprophyticus – antibiotic susceptible clinical isolate; format: cell-based
Description: as §2

[24] = system: Streptococcus pyogenes – ATCC 19615; format: cell-based
Description: as §2

[25] = system: MU50 Staphylococcus aureus (MRSA) – VISA type strain; format: cell-based
Description: as §2

[26] = system: Streptococcus pyogenes – Macrolide (MLS) resistant clinical isolate; format: cell-based
Description: as §2

[27] = system: Staphylococcus aureus - multi-drug-resistant clinical isolate; format: cell-based
Description: as §2

[28] = system: Escherichia coli - multi-drug resistant clinical isolate; format: cell-based
Description: as §2

[29] = system: Escherichia coli - ESBL - SHV; format: cell-based
Description: as §2

[30] = system: Staphylococcus aureus – methicillin-resistant clinical isolate; format: cell-based
Description: as §2

[31] = system: Pseudomonas aeruginosa - multi-drug resistant clinical isolate; format: cell-based
Description: as §2

[32] = system: EMRSA1 Staphylococcus aureus (MRSA) – SSCmec type 3; format: cell-based; details: EMRSA1 – SSCmec type 3
Description: as §2

[33] = system: Staphylococcus epidermidis – antibiotic susceptible clinical isolate; format: cell-based
Description: as §2

[34] = system: Escherichia coli - ESBL - CTXM; format: cell-based
Description: as §2

P. aeruginosa = details: in words; cited from earlier work
From the text: (§3) Considering the increasing resistance problems against conventional antibiotics, AMPs have recently emerged as potential therapeutic candidates in the above conditions. For example, the indolicidin-derived peptide omiganan is currently being evaluated in Phase III clinical trials for treatment of catheter-related infections. However, the use of AMPs in this context is challenging, as bacteria are able to excrete proteolytic enzymes, [38], and in the case of P. aeruginosa also AMP-scavenging exopolysaccharides, as a defense against AMPs.

erythrocytes = details: cited from earlier work
From the text: as §3

S. aureus = details: in words; cited from earlier work
From the text: as §3

T1 sequence (P0C1U8 69-336): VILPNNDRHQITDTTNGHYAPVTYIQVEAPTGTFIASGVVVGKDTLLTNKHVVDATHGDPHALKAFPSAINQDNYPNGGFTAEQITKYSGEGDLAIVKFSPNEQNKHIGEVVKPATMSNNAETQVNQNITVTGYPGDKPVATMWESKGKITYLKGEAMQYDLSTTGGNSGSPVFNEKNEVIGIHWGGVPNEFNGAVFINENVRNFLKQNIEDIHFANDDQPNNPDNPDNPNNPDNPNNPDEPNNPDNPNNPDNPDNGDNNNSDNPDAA

GRRPRPRPRPWWWW-NH2 [GRRPRPRPRPWWWW-NH2]
largely unaffected: stability against S. aureus V8 proteinase (S. aureus V8 proteinase) | stability against S. aureus aureolysin (S. aureus aureolysin) | stability against P. aeruginosa elastase (P. aeruginosa elastase)

ILRWPWWPWRRK-NH2 [ILRWPWWPWRRK-NH2, reference compound]
degraded during extended digestion: stability against P. aeruginosa elastase, extended digestion (P. aeruginosa elastase)

CC[C@H](C)[C@H](NC(=O)[C@H](CCCCN)NC(=O)[C@H](CCC(=O)O)NC(=O)[C@H](CCCCN)NC(=O)[C@H](CO)NC(=O)[C@H](CCCCN)NC(=O)[C@H](CCCNC(=N)N)NC(=O)[C@H](Cc1ccccc1)NC(=O)[C@H](Cc1ccccc1)NC(=O)[C@H](CC(=O)O)NC(=O)CNC(=O)[C@H](CC(C)C)NC(=O)[C@@H](N)CC(C)C)C(=O)NCC(=O)N[C@@H](CCCCN)C(=O)N[C@@H](CCC(=O)O)C(=O)N[C@@H](Cc1ccccc1)C(=O)N[C@@H](CCCCN)C(=O)N[C@@H](CCCNC(=N)N)C(=O)N[C@H](C(=O)N[C@H](C(=O)N[C@@H](CCC(N)=O)C(=O)N[C@@H](CCCNC(=N)N)C(=O)N[C@H](C(=O)N[C@@H](CCCCN)C(=O)N[C@@H](CC(=O)O)C(=O)N[C@@H](Cc1ccccc1)C(=O)N[C@@H](CC(C)C)C(=O)N[C@@H](CCCNC(=N)N)C(=O)N[C@@H](CC(N)=O)C(=O)N[C@@H](CC(C)C)C(=O)N[C@H](C(=O)N1CCC[C@H]1C(=O)N[C@@H](CCCNC(=N)N)C(=O)N[C@H](C(=O)N[C@@H](CCC(=O)O)C(=O)N[C@@H](CO)C(=O)O)[C@@H](C)O)C(C)C)[C@@H](C)CC)C(C)C)[C@@H](C)CC [reference compound]
significant concomitant hemolysis: hemolysis in human blood infected by bacteria [2]
extensively degraded: stability against human neutrophil elastase [1] | stability against S. aureus V8 proteinase (S. aureus V8 proteinase) | stability against S. aureus aureolysin (S. aureus aureolysin) | stability against P. aeruginosa elastase (P. aeruginosa elastase)

RRPRPRPRPWWWW-NH2 [RRPRPRPRPWWWW-NH2]
8 µg/mL: MIC [5] | MIC [10] | MIC [17] | MIC [18] | MIC [33]
largely unaffected: stability against S. aureus V8 proteinase (S. aureus V8 proteinase) | stability against S. aureus aureolysin (S. aureus aureolysin) | stability against P. aeruginosa elastase (P. aeruginosa elastase)
32 µg/mL: MIC [6] | MIC [7] | MIC [13] | MIC [16] | MIC [21] | MIC [25] | MIC [27] | MIC [29] | MIC [30] | MIC [32]
maintained stability: stability against P. aeruginosa elastase, extended digestion (P. aeruginosa elastase)
no accompanying hemolysis: hemolysis in human blood infected by bacteria [2]
16 µg/mL: MIC [8] | MIC [9] | MIC [11] | MIC [12] | MIC [14] | MIC [15] | MIC [19] | MIC [20] | MIC [22] | MIC [24] | MIC [26] | MIC [28] | MIC [34]
128 µg/mL: MIC [3] | MIC [31]
64 µg/mL: MIC [4] | MIC [23]

QPTRRPRPGTGPGRRPRPRPRP [QPT22, PRELP-derived peptide of earlier work]
no hemolytic activity: hemolytic activity (erythrocytes)
exert antimicrobial effects: antimicrobial effects (P. aeruginosa) | antimicrobial effects (S. aureus)
